Test results from the NIST ThermoML archive (doi:10.1021/je060382+).
Several values for one entry are separate records, joined by “and”; a condition that tells them apart may be missing. Equal entries are not always repeated. ± gives the expanded uncertainty stated by the source.

Legend:
[1] = Liquid; for viscosity: Falling or rolling sphere viscometry
[2] = refractive index (Na D-line) (dimensionless); details: 293.1 K; 101.33 kPa; Liquid; Standard Abbe refractometry

CC(C)CCCCCCCOC(=O)c1ccccc1C(=O)OCCCCCCCC(C)C
[1]
Details	mass density	viscosity
273.15 K, 101.33 kPa	980.73 ± 0.45 kg/m3 and 980.75 ± 0.11 kg/m3	627.6 ± 56 mPa·s and 664.5 ± 60 mPa·s
278.15 K, 101.33 kPa	977.12 ± 0.12 kg/m3	393.5 ± 30 mPa·s and 410.8 ± 32 mPa·s and 410.5 ± 32 mPa·s
283.15 K, 101.33 kPa	973.48 ± 0.46 kg/m3 and 973.49 ± 0.12 kg/m3	255.2 ± 17 mPa·s and 266.8 ± 18 mPa·s
288.15 K, 101.33 kPa	969.89 ± 0.12 kg/m3	170.9 ± 9.8 mPa·s and 178.6 ± 10 mPa·s
293.15 K, 101.33 kPa	966.37 ± 0.47 kg/m3 and 966.38 ± 0.13 kg/m3 and 966.37 ± 0.13 kg/m3	123.5 ± 6.3 mPa·s [middle of 5 runs]
293.15 K, 19400 kPa	–	202.4 ± 12 mPa·s
293.15 K, 39700 kPa	–	335 ± 25 mPa·s
293.15 K, 59500 kPa	–	534.5 ± 45 mPa·s
293.15 K, 103600 kPa	–	1435.6 ± 160 mPa·s
293.15 K, 118200 kPa	–	1981.5 ± 250 mPa·s
293.15 K, 118900 kPa	–	2033.8 ± 260 mPa·s
293.15 K, 159600 kPa	–	4719.2 ± 720 mPa·s
298.15 K, 101.33 kPa	962.83 ± 0.47 kg/m3 and 962.84 ± 0.13 kg/m3	87.7 ± 4 mPa·s and 84.1 ± 3.8 mPa·s and 88.4 ± 4 mPa·s
298.15 K, 25400 kPa	–	165.5 ± 9.3 mPa·s
298.15 K, 50700 kPa	–	300.2 ± 21 mPa·s
298.15 K, 75500 kPa	–	525 ± 44 mPa·s
298.15 K, 100600 kPa	–	904.7 ± 89 mPa·s
303.15 K, 101.33 kPa	959.31 ± 0.48 kg/m3 and 959.29 ± 0.48 kg/m3 and 959.3 ± 0.14 kg/m3	65 ± 2.8 mPa·s [middle of 4 runs]
308.15 K, 101.33 kPa	–	48.9 ± 2.1 mPa·s [middle of 4 runs]
313.15 K, 100 kPa	–	37.6 ± 3.7 mPa·s and 36.8 ± 3.8 mPa·s
313.15 K, 101.33 kPa	952.2 ± 0.49 kg/m3 and 952.21 ± 0.14 kg/m3	37.5 ± 1.6 mPa·s [middle of 4 runs]
313.15 K, 700 kPa	–	38.3 ± 1.8 mPa·s
313.15 K, 25000 kPa	–	65.4 ± 6.3 mPa·s and 63.9 ± 5.3 mPa·s
313.15 K, 25800 kPa	–	66 ± 2.9 mPa·s
313.15 K, 50000 kPa	–	109.4 ± 12 mPa·s and 107 ± 12 mPa·s
313.15 K, 50600 kPa	–	110.3 ± 5.4 mPa·s
313.15 K, 75500 kPa	–	181 ± 10 mPa·s
313.15 K, 100000 kPa	–	290 ± 47 mPa·s and 271 ± 44 mPa·s and 273 ± 44 mPa·s
313.15 K, 100300 kPa	–	291.6 ± 20 mPa·s
313.15 K, 125100 kPa	–	463.2 ± 37 mPa·s
313.15 K, 150400 kPa	–	732.6 ± 70 mPa·s
313.15 K, 175800 kPa	–	1143.6 ± 120 mPa·s
313.15 K, 197600 kPa	–	1680 ± 200 mPa·s
313.15 K, 200000 kPa	–	1580 ± 250 mPa·s and 1665 ± 260 mPa·s and 1530 ± 300 mPa·s
313.15 K, 227900 kPa	–	2671.7 ± 360 mPa·s
313.15 K, 252000 kPa	–	3750 ± 770 mPa·s and 3932.3 ± 580 mPa·s
313.15 K, 300000 kPa	–	8110 ± 1700 mPa·s and 7270 ± 1600 mPa·s
313.15 K, 400000 kPa	–	36300 ± 9800 mPa·s and 33700 ± 9100 mPa·s
313.15 K, 500000 kPa	–	168000 ± 53000 mPa·s and 158000 ± 49000 mPa·s
313.15 K, 600000 kPa	–	782000 ± 280000 mPa·s and 694000 ± 250000 mPa·s
313.15 K, 700000 kPa	–	3820000 ± 1.6e+06 mPa·s and 3410000 ± 1.4e+06 mPa·s
313.15 K, 800000 kPa	–	2.36e+07 ± 1.1e+07 mPa·s and 1.98e+07 ± 8.7e+06 mPa·s
323.15 K, 101.33 kPa	945.12 ± 0.5 kg/m3 and 945.13 ± 0.15 kg/m3	23 ± 1 mPa·s and 23.7 ± 1 mPa·s
333.15 K, 101.33 kPa	938.05 ± 0.51 kg/m3 and 938.07 ± 0.16 kg/m3	15.9 ± 0.7 mPa·s [middle of 4 runs]
338.15 K, 100 kPa	–	13.2 ± 1.3 mPa·s and 13.08 ± 1.4 mPa·s
338.15 K, 101.33 kPa	–	13.3 ± 0.6 mPa·s and 13.2 ± 0.5 mPa·s and 13 ± 0.5 mPa·s
338.15 K, 500 kPa	–	13.3 ± 0.6 mPa·s
338.15 K, 25000 kPa	–	20.2 ± 2.3 mPa·s
338.15 K, 30500 kPa	–	22.7 ± 1 mPa·s
338.15 K, 50000 kPa	–	30.7 ± 3.8 mPa·s and 31.1 ± 3.8 mPa·s
338.15 K, 60700 kPa	–	37.8 ± 1.6 mPa·s
338.15 K, 90600 kPa	–	60.9 ± 2.9 mPa·s
338.15 K, 99500 kPa	–	70.9 ± 3.4 mPa·s
338.15 K, 100000 kPa	–	67.7 ± 10 mPa·s and 69.4 ± 9.8 mPa·s
338.15 K, 120500 kPa	–	96.3 ± 5 mPa·s
338.15 K, 150100 kPa	–	149.6 ± 8.8 mPa·s
338.15 K, 180400 kPa	–	229.2 ± 16 mPa·s
338.15 K, 200000 kPa	–	291 ± 56 mPa·s and 286 ± 53 mPa·s and 299 ± 54 mPa·s
338.15 K, 200600 kPa	–	307.8 ± 23 mPa·s
338.15 K, 250700 kPa	–	614.9 ± 58 mPa·s
338.15 K, 275600 kPa	–	856.5 ± 85 mPa·s
338.15 K, 300000 kPa	–	1131 ± 260 mPa·s [middle of 4 runs]
338.15 K, 301000 kPa	–	1203.7 ± 130 mPa·s
338.15 K, 321800 kPa	–	1571 ± 180 mPa·s
338.15 K, 352700 kPa	–	2381 ± 310 mPa·s
338.15 K, 370500 kPa	–	2998.7 ± 410 mPa·s
338.15 K, 394000 kPa	–	3890 mPa·s
338.15 K, 394400 kPa	–	4005.5 ± 590 mPa·s
338.15 K, 500000 kPa	–	14200 ± 5700 mPa·s and 13100 ± 5400 mPa·s
338.15 K, 1000000 kPa	–	7420000 ± 3e+06 mPa·s and 6141000 ± 2.5e+06 mPa·s
343.15 K, 101.33 kPa	930.99 ± 0.53 kg/m3 and 931.01 ± 0.16 kg/m3	11.2 ± 0.5 mPa·s [middle of 4 runs]
348.15 K, 101.33 kPa	–	9.63 ± 0.4 mPa·s and 9.65 ± 0.4 mPa·s
348.15 K, 11100 kPa	–	11.7 ± 0.5 mPa·s
348.15 K, 26500 kPa	–	15.1 ± 0.6 mPa·s
348.15 K, 52600 kPa	–	22.9 ± 1 mPa·s
348.15 K, 78900 kPa	–	33.7 ± 1.4 mPa·s
348.15 K, 81000 kPa	–	35 ± 1.5 mPa·s
348.15 K, 105700 kPa	–	49.67 ± 2.1 mPa·s
348.15 K, 124200 kPa	–	65.18 ± 2.8 mPa·s
348.15 K, 125700 kPa	–	66 ± 2.8 mPa·s
348.15 K, 149800 kPa	–	92 ± 4.2 mPa·s
348.15 K, 175700 kPa	–	130.3 ± 6.7 mPa·s
348.15 K, 202300 kPa	–	186.52 ± 11 mPa·s
348.15 K, 225400 kPa	–	250 ± 16 mPa·s
348.15 K, 274700 kPa	–	467.3 ± 38 mPa·s
348.15 K, 275700 kPa	–	472.3 ± 38 mPa·s
348.15 K, 324900 kPa	–	866.8 ± 85 mPa·s
348.15 K, 372500 kPa	–	1541.5 ± 180 mPa·s
353.15 K, 101.33 kPa	923.95 ± 0.54 kg/m3 and 923.98 ± 0.17 kg/m3 and 923.97 ± 0.17 kg/m3	8.12 ± 0.34 mPa·s and 8.35 ± 0.34 mPa·s
363.15 K, 101.33 kPa	916.91 ± 0.55 kg/m3 and 916.94 ± 0.18 kg/m3	–
373.15 K, 100 kPa	–	4.67 ± 0.59 mPa·s and 4.7 ± 0.59 mPa·s
373.15 K, 25000 kPa	–	6.73 ± 0.88 mPa·s and 6.86 ± 0.69 mPa·s
373.15 K, 50000 kPa	–	9.66 ± 1.3 mPa·s and 9.77 ± 1.4 mPa·s
373.15 K, 100000 kPa	–	18 ± 2.9 mPa·s and 18.5 ± 3 mPa·s
373.15 K, 200000 kPa	–	56.6 ± 13 mPa·s and 57.8 ± 12 mPa·s
373.15 K, 300000 kPa	–	163 ± 52 mPa·s and 166 ± 50 mPa·s and 165 ± 50 mPa·s
373.15 K, 400000 kPa	–	453 ± 200 mPa·s [middle of 4 runs]

Details	mass density [kg/m3]
[1], 293.1 K, 101.33 kPa, Vibrating tube method	967.6 ± 6.5

Details	refractive index
[2]	1.4849 ± 0.0012
